# Data taken from patent US20110040086A1, “Novel Beta-Lactam Antibiotics, Methods for Their Production, and Their Use” (DRITTE PATENTPORTFOLIO BETEILIGUNGSGESELLSCHAFT MB, priority 2007, published 2011).
# Experiments:
# [1] = tested on: Bacillus megaterium SBUG 1152; assay: agar diffusion test (Test System 1, antimicrobial effect); type: cell-based
# How it was run: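 B. megaterium SBUG 1152 grown overnight (17 h, 37° C., 180 rpm) and seeded at 10^6 cells per 10 ml nutrient agar. Compound at 10, 50 and 100 μg, dissolved in methanol or water, applied to paper discs. Inhibition-zone diameter (mm) read after 20 h at 37° C.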
# [2] = tested on: B. subtilis AWD 166; assay: agar diffusion test (antimicrobial effect); type: cell-based, Bacillus subtilis
# How it was run: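 Nutrient agar seeded with B. subtilis AWD 166 to give dense non-confluent colonies; compounds in methanol or distilled water applied to discs at 10, 50, 100 μg. After 20 h at 37 °C, inhibition zone diameter measured in mm.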
# [3] = tested on: Enterococcus faecalis 769; assay: agar diffusion test (Test System II, multi-resistant germs); type: cell-based; set-up: key: r = resistant (no detectable zone of inhibition)
# How it was run: (§1)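 Disc diffusion on Müller-Hinton II agar; inoculum McFarland 0.5 in saline, streaked in three directions. Discs carry 10/50/100 μg compound (MeOH or water). 37 °C, 18-20 h; read-out: zone-of-inhibition diameter.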
# [4] = tested on: Staphylococcus aureus 315; assay: as above; type: cell-based; set-up: key: r = resistant (no detectable zone of inhibition)
# How it was run: as §1
# [5] = tested on: E. faecalis 945; assay: as above; type: cell-based, Enterococcus faecalis; set-up: key: r = resistant (no detectable zone of inhibition)
# How it was run: as §1
# [6] = tested on: S. aureus 33490; assay: as above; type: cell-based, Staphylococcus aureus; set-up: key: r = resistant (no detectable zone of inhibition)
# How it was run: as §1
# [7] = tested on: S. aureus 34289; assay: as above; type: cell-based, Staphylococcus aureus; set-up: key: r = resistant (no detectable zone of inhibition)
# How it was run: as §1
# [8] = tested on: S. aureus 36881; assay: as above; type: cell-based, Staphylococcus aureus; set-up: key: r = resistant (no detectable zone of inhibition)
# How it was run: as §1
# [9] = tested on: S. aureus 39105; assay: as above; type: cell-based, Staphylococcus aureus; set-up: key: r = resistant (no detectable zone of inhibition)
# How it was run: as §1
# [10] = tested on: S. aureus 520; assay: as above; type: cell-based, Staphylococcus aureus; set-up: key: r = resistant (no detectable zone of inhibition)
# How it was run: as §1
# [11] = tested on: S. aureus 526; assay: as above; type: cell-based, Staphylococcus aureus; set-up: key: r = resistant (no detectable zone of inhibition)
# How it was run: as §1
# [12] = tested on: S. aureus North Germany strain; assay: as above; type: cell-based, Staphylococcus aureus; set-up: key: r = resistant (no detectable zone of inhibition)
# How it was run: as §1
# [13] = tested on: S. aureus 38418; assay: as above; type: cell-based, Staphylococcus aureus
# How it was run: as §1
# [14] = tested on: S. aureus ATCC 6538; assay: as above; type: cell-based, Staphylococcus aureus
# How it was run: as §1
# [15] = tested on: S. epidermidis 1068; assay: as above; type: cell-based, Staphylococcus epidermidis; set-up: key: r = resistant (no detectable zone of inhibition)
# How it was run: as §1
# [16] = tested on: S. epidermidis 1071; assay: as above; type: cell-based, Staphylococcus epidermidis; set-up: key: r = resistant (no detectable zone of inhibition)
# How it was run: as §1
# [17] = tested on: S. epidermidis 563; assay: as above; type: cell-based, Staphylococcus epidermidis; set-up: key: r = resistant (no detectable zone of inhibition)
# How it was run: as §1
# [18] = tested on: S. epidermidis 847; assay: as above; type: cell-based, Staphylococcus epidermidis; set-up: key: r = resistant (no detectable zone of inhibition)
# How it was run: as §1
# [19] = tested on: S. epidermidis 125; assay: as above; type: cell-based, Staphylococcus epidermidis; set-up: key to Diameter of zone of inhibition: r = resistant (no detectable zone of inhibition)
# How it was run: as §1
substance,measurement,setting,value
"7-{2-[2-(2-hydroxyethylcarbamoyl)-3,6-dioxocyclohexa-1,4-dienylamino]-2-phenyl-acetylamino}-desacetoxycephalosporanic acid [1e]",Diameter of zone of inhibition,[1]; Quantity n 0.029,20 mm
same,Diameter of zone of inhibition,[1]; Quantity n 0.14,28 mm
same,Diameter of zone of inhibition,[1]; Quantity n 0.29,32 mm
same,Diameter of zone of inhibition,[2]; Quantity n 0.029,22 mm
same,Diameter of zone of inhibition,[2]; Quantity n 0.14,30 mm
same,Diameter of zone of inhibition,[2]; Quantity n 0.29,32 mm
same,Diameter of zone of inhibition,[3]; Quantity n 0.029,r
same,Diameter of zone of inhibition,[3]; Quantity n 0.14,r
same,Diameter of zone of inhibition,[3]; Quantity n 0.29,r
same,Diameter of zone of inhibition,[4]; Quantity n 0.029,r
same,Diameter of zone of inhibition,[4]; Quantity n 0.14,r
same,Diameter of zone of inhibition,[4]; Quantity n 0.29,12 mm
same,Diameter of zone of inhibition,[5]; Quantity n 0.029,r
same,Diameter of zone of inhibition,[5]; Quantity n 0.14,r
same,Diameter of zone of inhibition,[5]; Quantity n 0.29,r
same,Diameter of zone of inhibition,[6]; Quantity n [μmol] 0.029,8 mm
same,Diameter of zone of inhibition,[6]; Quantity n [μmol] 0.14,16 mm
same,Diameter of zone of inhibition,[6]; Quantity n [μmol] 0.29,20 mm
same,Diameter of zone of inhibition,[7]; Quantity n [mol] 0.029,r
same,Diameter of zone of inhibition,[7]; Quantity n [mol] 0.14,r
same,Diameter of zone of inhibition,[7]; Quantity n [mol] 0.29,r
same,Diameter of zone of inhibition,[8]; Quantity n 0.029,r
same,Diameter of zone of inhibition,[8]; Quantity n 0.14,r
same,Diameter of zone of inhibition,[8]; Quantity n 0.29,14 mm
same,Diameter of zone of inhibition,[9]; Quantity n 0.029,r
same,Diameter of zone of inhibition,[9]; Quantity n 0.14,r
same,Diameter of zone of inhibition,[9]; Quantity n 0.29,14 mm
same,Diameter of zone of inhibition,[10]; Quantity n [mol] 0.029,r
same,Diameter of zone of inhibition,[10]; Quantity n [mol] 0.14,r
same,Diameter of zone of inhibition,[10]; Quantity n [mol] 0.29,r
same,Diameter of zone of inhibition,[11]; Quantity n 0.029,r
same,Diameter of zone of inhibition,[11]; Quantity n 0.14,r
same,Diameter of zone of inhibition,[11]; Quantity n 0.29,r
same,Diameter of zone of inhibition,[12]; Quantity n 0.029,r
same,Diameter of zone of inhibition,[12]; Quantity n 0.14,10 mm
same,Diameter of zone of inhibition,[12]; Quantity n 0.29,16 mm
same,Diameter of zone of inhibition,[13]; Quantity n [mol] 0.029,14 mm
same,Diameter of zone of inhibition,[13]; Quantity n [mol] 0.14,26 mm
same,Diameter of zone of inhibition,[13]; Quantity n [mol] 0.29,30 mm
same,Diameter of zone of inhibition,[14]; Quantity n 0.029,20 mm
same,Diameter of zone of inhibition,[14]; Quantity n 0.14,30 mm
same,Diameter of zone of inhibition,[14]; Quantity n 0.29,32 mm
same,Diameter of zone of inhibition,[15]; Quantity n 0.029,r
same,Diameter of zone of inhibition,[15]; Quantity n 0.14,14 mm
same,Diameter of zone of inhibition,[15]; Quantity n 0.29,16 mm
same,Diameter of zone of inhibition,[16]; Quantity n 0.029,10 mm
same,Diameter of zone of inhibition,[16]; Quantity n 0.14,18 mm
same,Diameter of zone of inhibition,[16]; Quantity n 0.29,20 mm
same,Diameter of zone of inhibition,[17]; Quantity n 0.029,r
same,Diameter of zone of inhibition,[17]; Quantity n 0.14,18 mm
same,Diameter of zone of inhibition,[17]; Quantity n 0.29,24 mm
same,Diameter of zone of inhibition,[18]; Quantity n [mol] 0.029,r
same,Diameter of zone of inhibition,[18]; Quantity n [mol] 0.14,16 mm
same,Diameter of zone of inhibition,[18]; Quantity n [mol] 0.29,20 mm
same,Diameter of zone of inhibition,[19]; Quantity n 0.029,r
same,Diameter of zone of inhibition,[19]; Quantity n 0.14,24 mm
same,Diameter of zone of inhibition,[19]; Quantity n 0.29,28 mm
